Like-named read-outs stand apart in the source and are kept apart here.
Legend:
platelet aggregation = test: Platelet aggregation-inhibiting action in rabbit platelet-rich plasma (aggregometer); format: cell-based; settings: Oryctolagus cuniculus, 0.05 h, rabbit PRP, 37°C, 3 min incubation
Method: Blood was drawn from the carotid artery of a rabbit using a syringe containing 1/10 volume of a 3.8% solution of sodium citrate. The blood was centrifuged to obtain platelet-rich plasma (PRP: 5 x 10^5 cells/µl).
In a cuvette were placed 200 µl of said PRP and 25 µl of a physiological saline solution. The cuvette was set on an aggregometer and warmed at 37°C for 2 min. Into the cuvette was then added 1.25 µl of an ethanol solution of a pyrazine derivative to be tested. After incubated for 3 min., a solution of a platelet-aggregation inducer, arachidonic acid or collagen, was added thereto. Measurements were made for platelet aggregation using an aggregometer (Hematracer IV; Niko Biosciences K.K.). […] Acetylsalicylic acid was used as a comparison.
The 50% inhibitory concentration as shown in the table means the concentration of the solution of a pyrazine derivative required for inhibiting the aggregation of platelets by introducing said pyrazine derivative when the platelet aggregatiqn in the absence of any pyrazine derivative of the invention is taken as 100%.

cyclooxygenase = biological target: T1, cyclooxygenase (Oryctolagus cuniculus, UniProt O97554); test: Cyclooxygenase-inhibiting activity, washed platelets as enzyme source, 14C-arachidonic acid, TLC radiochromatogram; format: biochemical; settings: washed rabbit platelets, 37°C for 3 min; sum of radioactivities of prostaglandin E2, prostaglandin D2 and HHT; read-out: 50% inhibitory concentration (mole)
T1 construct: The washed platelets thus produced were used as an enzyme source for cyclooxygenase; from tissue; host or cells: washed platelets from rabbit carotid artery blood
T1 sequence (O97554 31-606): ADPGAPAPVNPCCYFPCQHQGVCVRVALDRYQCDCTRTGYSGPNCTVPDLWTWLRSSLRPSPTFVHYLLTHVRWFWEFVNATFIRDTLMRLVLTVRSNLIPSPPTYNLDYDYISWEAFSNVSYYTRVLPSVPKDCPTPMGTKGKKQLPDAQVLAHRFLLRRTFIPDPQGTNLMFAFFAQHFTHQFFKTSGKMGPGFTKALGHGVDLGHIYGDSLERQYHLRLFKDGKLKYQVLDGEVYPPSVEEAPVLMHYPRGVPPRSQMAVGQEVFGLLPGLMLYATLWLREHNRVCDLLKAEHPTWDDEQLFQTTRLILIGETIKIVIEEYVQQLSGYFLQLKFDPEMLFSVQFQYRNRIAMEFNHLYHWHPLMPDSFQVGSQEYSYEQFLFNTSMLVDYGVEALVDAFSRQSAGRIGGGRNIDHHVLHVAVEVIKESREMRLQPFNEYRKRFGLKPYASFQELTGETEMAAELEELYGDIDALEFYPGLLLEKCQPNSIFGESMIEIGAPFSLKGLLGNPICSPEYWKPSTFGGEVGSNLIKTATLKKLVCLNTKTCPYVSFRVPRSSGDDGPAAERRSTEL
Method: In a centrifuge tube was collected 9 volumes of blood from the carotid artery of a rabbit per volume of a 3.8% solution of sodium citric acid contained therein using a canula. Platelet-rich plasma was obtained by centrifugation. To the platelet-rich plasma was added a 77 mM solution of EDTA in a volume of 1/10 per volume of said plasma. After mixing thoroughly, the mixture was subjected to centrifugation at 2500 r.p.m. at room temperature for 10 min. The supernatant was discarded, and the platelets were suspended in approximately 3 ml of a wash (134 mM of sodium chloride, 15 mM of trisaminomethane, 1 mM of EDTA and 5 mM of D-glucose dissolved in distilled water with a pH adjusted to 7.4 with 1N-hydrogen chloride), and the suspension was centrifuged at 2000 rpm at room temperature for 10 min. The supernatant was discarded, and the precipitated platelets were suspended in a 1/15 M phosphate buffer solution at pH 8.0 to adjust the number of the platelets to 6-8 x 10^5 cells/µl.
The washed platelets thus produced were used as an enzyme source for cyclooxygenase. […]
Development was made with a developing solvent (chloroform/methanol/acetic acid/water = 90:8:1:0.8) by approximately 18 cm, and then the inhibiting activity was determined by measuring sum of the radioactivities of prostaglandin E2' prostaglandin D2 and HHT by a radiochromatogram scanner.

[1] = aggregation caused by arachidonic acid (80 µM), read-out: 50% aggregation-inhibitory concentration (mole) Arachidonic acid
[2] = aggregation caused by collagen (15 µg/ml), read-out: 50% aggregation-inhibitory concentration (mole) Collagen

SMILES	IC50 (platelet aggregation; [1]) [nM]	IC50 (platelet aggregation; [2]) [nM]	IC50 (cyclooxygenase) [nM]
COc1ccc(-c2nc3c(nc2-c2ccc(OC)cc2)CCCC3)cc1 [Example 3, 2,3-bis(p-methoxyphenyl)-5,6,7,8-tetrahydroquinoxaline]	15	24	–
Brc1ccc(Cc2cnc(-c3ccccc3)c(-c3ccccc3)n2)cc1 [Example 8, 2,3-diphenyl-5-(p-bromobenzyl)pyrazine]	16000	100000	–
CCc1nc(CC)c(-c2ccccc2)nc1-c1ccccc1 [Example 1, 2,6-diethyl-3,5-diphenylpyrazine]	1700	390	–
CN(C)c1ccc(Cc2cnc(-c3ccccc3)c(-c3ccccc3)n2)cc1 [Example 9, 2,3-diphenyl-5-(p-dimethylaminobenzyl)pyrazine]	84000	74000	–
Clc1ccc(Cc2cnc(-c3ccccc3)c(-c3ccccc3)n2)cc1 [Example 7, 2,3-diphenyl-5-(p-chlorobenzyl)pyrazine]	82000	34000	–
Clc1cccc(Cc2cnc(-c3ccccc3)c(-c3ccccc3)n2)c1 [Example 6, 2,3-diphenyl-5-(m-chlorobenzyl)pyrazine]	4500	44000	–
c1ccc(-c2ncc(Cc3cccc4ccccc34)nc2-c2ccccc2)cc1 [Example 10, 2,3-diphenyl-5-(l-naphthyl)methylpyrazine]	43000	31000	–
COc1ccc(-c2nc(Cl)c(Cl)nc2-c2ccc(OC)cc2)cc1 [Example 11, 2,3-bis(p-methoxyphenyl)-5,6-dichloropyrazine]	14	220	–
Clc1ccccc1Cc1cnc(-c2ccccc2)c(-c2ccccc2)n1 [Example 5, 2,3-diphenyl-5-(o-chlorobenzyl)pyrazine]	4400	36000	–
CCc1ncc(-c2ccccc2)nc1-c1ccccc1 [Example 2, 2-ethyl-3,5-diphenylpyrazine]	6000	19000	–
COc1ccc(-c2nc3ccccc3nc2-c2ccc(OC)cc2)cc1 [Example 4, 2,3-bis(p-methoxyphenyl)quinoxaline]	38	9.8	–

The next lines start with the values.

IC50 (platelet aggregation; [1]) [nM]	IC50 (platelet aggregation; [2]) [nM]	IC50 (cyclooxygenase) [nM]	SMILES
260	5000	–	COc1ccc(-c2ncc(C(=O)O)nc2-c2ccc(OC)cc2)cc1 [Example 14, 2,3-bis(p-methoxyphenyl)-pyrazine-5-carboxylic acid]
3.8	9.8	–	COc1ccc(-c2ncc(Cl)nc2-c2ccc(OC)cc2)cc1 [Example 12, 2,3-bis(p-methoxyphenyl)-5-chloropyrazine]
1000	1000	–	Cc1cnc(-c2ccc(C#N)cc2)c(-c2ccc(C#N)cc2)n1 [X=-CN, R2=H, R3=-CH3]
3	130	–	COC(=O)c1cnc(-c2ccc(OC)cc2)c(-c2ccc(OC)cc2)n1 [Example 15]
24	15	5000	COc1ccc(-c2ncc(C#N)nc2-c2ccc(OC)cc2)cc1 [Example 13, 2,3-bis(p-methoxyphenyl)-5-cyanopyrazine]

— patent publication EP0397859A1, “PYRAZINE DERIVATIVES AND MEDICINAL PREPARATION CONTAINING SAME” (TERUMO KABUSHIKI KAISHA, priority 1987, dated 1989)
